Assays:
Format in all cases: ADME, organism-based
[1] = Oral bioavailability in Sprague-Dawley rat at 3 mg/kg administered via oral gavage by LC-MS/MS analysis; conditions: in vivo
[2] = AUC in C57Bl/6 mouse at 3 mg/kg administered via oral gavage by LC-MS/MS analysis; conditions: in vivo
[3] = Cmax in Sprague-Dawley rat at 3 mg/kg administered via oral gavage by LC-MS/MS analysis; parameters: dose 3 mg/kg, route oral; conditions: in vivo
[4] = Half life in C57Bl/6 mouse at 1 mg/kg, iv as bolus dose by LC-MS/MS analysis; conditions: in vivo
[5] = AUC in Sprague-Dawley rat at 3 mg/kg administered via oral gavage by LC-MS/MS analysis; conditions: in vivo
[6] = Clearance in C57Bl/6 mouse at 1 mg/kg, iv as bolus dose by LC-MS/MS analysis; conditions: in vivo
Mus musculus = assay: fAUC in po dosed diet-induced obese C57 mouse administered as single dose 15 mins; conditions: in vivo, 0.25 h
[7] = Cmax in C57Bl/6 mouse at 3 mg/kg administered via oral gavage by LC-MS/MS analysis; parameters: dose 3 mg/kg, route oral; conditions: in vivo
[8] = Clearance in Sprague-Dawley rat at 1 mg/kg, iv as bolus dose by LC-MS/MS analysis; conditions: in vivo
[9] = Oral bioavailability in C57Bl/6 mouse at 3 mg/kg administered via oral gavage by LC-MS/MS analysis; conditions: in vivo
[10] = Volume of distribution at steady state in C57Bl/6 mouse at 1 mg/kg, iv as bolus dose by LC-MS/MS analysis; conditions: in vivo, read-out: Vdss
[11] = Half life in Sprague-Dawley rat at 1 mg/kg, iv as bolus dose by LC-MS/MS analysis; conditions: in vivo
[12] = Volume of distribution at steady state in Sprague-Dawley rat at 1 mg/kg, iv as bolus dose by LC-MS/MS analysis; conditions: in vivo, read-out: Vdss

Compound	bioavailability [1]	AUC [2]	Cmax [3]	half-life [4]	AUC [5]	clearance [6]	fAUC (Mus musculus)	Cmax [7]	clearance [8]	bioavailability [9]	Vd [10]	half-life [11]	Vd [12]
COc1ccc(C(C)(C)c2cnc(SCCOc3ccc(-n4ccnc4)cc3)n2-c2ccc(F)cc2)cc1OC	31%	754 ng·h/mL	148 ng/mL	19.8 min	207 ng·h/mL	47.3 mL/min/kg	231.38 ng·h/mL	789 ng/mL	79.7 mL/min/kg	71%	0.83 L/kg	19.2 min	2.05 L/kg
COc1ccc(C(C)(C)c2cnc(SCc3c(F)cccc3Cl)n2-c2ccc(F)cc2)cc1OC		73.5 ng·h/mL		45.6 min		45.5 mL/min/kg		51.8 ng/mL		7%	1.54 L/kg		

Reference: ChEMBL document CHEMBL3792350, “Discovery of a Potent and Orally Efficacious TGR5 Receptor Agonist” (ACS Med Chem Lett, 2016)
